{"source": "patent US20150031535A1", "about": "“Liquid concentrate formulation containing a pyripyropene insecticide III” (BASF SE, priority 2012, published 2015)", "key": {"[1]": {"assay": "Precipitation from a solution of Insecticide A in Solvent A on continued agitation at room temperature (Example 1, comparative)", "format": "physicochemical", "protocol": "A solution of Insecticide A (pyripyropene derivative I) in Solvent A was prepared by slowly adding 4.98 parts by weight of Insecticide A to well agitated 63.92 parts by weight of Solvent A at room temperature. It typically took 1 to 3 hours for complete dissolution depending on the addition rate of Insecticide A and on the mode of agitation. After the agitation had been continued for additional approximately 12 hours the clear solution started to turn cloudy, indicating the precipitation of Solvent A solvate crystals of Insecticide A. Microscopy analysis confirmed that the precipitation was indeed crystalline."}, "[2]": {"assay": "Solvate crystal growth in seeded solutions of Insecticide A in 2-heptanone/Solvent A mixtures (Example 2)", "format": "physicochemical", "details": "seeded with Solvent A solvate crystals, 22° C., one month", "protocol": "Four solutions of 2-heptanone in Solvent A were prepared by mixing 1 part by weight of 2-heptanone with 2, 4, 6 and 8 parts by weight, respectively, of solvent A. Then Insecticide A was dissolved in each of these solutions by slowly adding 4.98 parts by weight of Insecticide A to well agitated 63.92 parts by weight of the respective solution at room temperature. It typically took 1 to 3 hours for complete dissolution. After Insecticide A was fully dissolved, each of the four samples was seeded with the Solvent A solvate crystals of Insecticide A prepared in Example 1. Then the four samples were kept at 22° C. for one month and afterwards were visually inspected for solvate crystal growth."}}}
{"smiles": "C[C@]1(COC(=O)C2CC2)[C@@H]2C[C@H](O)[C@@]3(C)Oc4cc(-c5cccnc5)oc(=O)c4[C@H](O)[C@@H]3[C@@]2(C)CC[C@@H]1OC(=O)C1CC1", "note": "[Insecticide A]", "values": [{"measurement": "microscopy analysis of the precipitation", "setting": "[1]; 4.98 parts Insecticide A in 63.92 parts Solvent A", "result": "crystalline"}, {"measurement": "additional agitation time after which the clear solution started to turn cloudy (precipitation of Solvent A solvate crystals)", "setting": "[1]; 4.98 parts by weight Insecticide A in 63.92 parts by weight Solvent A, after complete dissolution", "result": "approximately 12 hours"}, {"measurement": "solvate crystal growth (visual inspection)", "setting": "[2]; 2-heptanone to Solvent A ratio 1:2", "result": "no crystal growth was observed"}, {"measurement": "solvate crystal growth (visual inspection)", "setting": "[2]; 2-heptanone to Solvent A ratio 1:4", "result": "no crystal growth was observed"}, {"measurement": "solvate crystal growth (visual inspection)", "setting": "[2]; 2-heptanone to Solvent A ratio 1:6", "result": "crystal growth was detected"}, {"measurement": "solvate crystal growth (visual inspection)", "setting": "[2]; 2-heptanone to Solvent A ratio 1:8", "result": "crystal growth was detected"}]}
